Measured values published in patent US20150238539A1, “COMPOSITION FOR BRAIN-NEURON PROTECTION AND BRAIN-DISEASE PREVENTION, ALLEVIATION OR TREATMENT COMPRISING MUSKRAT MUSK” (priority 2012, published 2015).

Legend:
male ICR mouse [1] = assay: Passive avoidance experiment in mice with ethanol-induced memory damage; format: in vivo; details: oral once a day for 4 days; for Time of arrival in the learning test: acquisition trial, ethanol orally 30 minutes after last administration; for Time of arrival in the retention trial: step-through latency 24 hours after learning test, measured up to 300 seconds, then ethanol
Description: (§1) As for the experimental animals, 18 to 20 g of 45 male ICR mouse purchased from DAEHAN Animal Experiment Co., Ltd. were used. Specifically, the animals were classified to include five mice per group, then placed in a cage, sufficiently fed with water and foodstuff, and bred in an animal room wherein the temperature (24 ±1° C.), relative humidity (55±5%) and the light-dark (06:00-18:00, light) were controlled during the experiment period. The animals were classified into nine groups of the non-treated group, the ethanol group, the tacrine group and the groups of PREPARATIONS 1 to 6.
The passive avoidance experiment was performed in order to confirm the effects of the compositions of PREPARATIONS 1 to 6 on each memory and learning. This experiment uses the characteristics that animals intend to enter into the dark instinctively. If the animals intend to enter into the dark, an electrical stimulation is given to the animals to prevent from entering the dark. Thereafter, the short-term memory power against the electrical stimulation was measured.
Four days before the passive avoidance experiment, tacrine and substances PREPARATIONS 1 to 6 were orally administered to seven other groups except for the non-treated group and the ethanol group once a day. On day 4, the last day of administration, tacrine and compositions of PREPARATIONS 1 to 6 were orally administered. After 30 minutes, ethanol which undergoes damage to the memory power of mouse was orally administered to eight groups except for the non-treated group.
The passive avoidance experiment was conducted in the apparatus wherein each room having the same structure and 60 dB or less of noise and including a room with light and a room without light (width 20 cm, length 20 cm, height 20 cm) is connected to the guillotin door (Jungdo Bio & Plant Co. Ltd, Seoul, Korea). The mouse was placed in a bright room with shining light and observed for 10 seconds. Subsequently, the door was opened and the mouse was allowed to enter into the dark room. At this time, the time taken to go into a dark room was measured (Learning Test: acquisition trial). If the mouse enters into the dark room, the door is automatically closed. The electrical stimulation of 0.6 mA was given to the mouse through the stainless grid on the bottom for five seconds.
In order to confirm the effect of recovering the cognitive function of the composition the present invention, influencing on the long-term memory after the learning test, the mouse was placed on the bright side of the room after 24 hours. The time taken to go into the dark room (step-through latency time: time of arrival) was measured up to 300 seconds (retention trial).

male ICR mouse [2] = assay: Morris water-maze experiment in mice with ethanol-induced memory damage; format: in vivo; details: oral once a day for 4 days, then ethanol; for Mean escape latency: mean of 3 trials a day, cut-off 120 seconds; for Time spent in quadrant: probe test on last day, escape platform removed
Description: as §1
The morris water-maze experiment was carried out to measure the degree affecting the recovery of the spatial perception ability and short-term or long-term memory power in experimental animals.
Prior to the morris water-maze experiment, tacrine and the substances of PREPARATIONS 1 to 6 were orally administered to seven groups except for the non-treated group and the ethanol group once a day. On the 4th day, the last day of administration, tacrine and the substances from Preparations 1 to 6 were administered. After 30 minutes, ethanol which undergoes damage to the memory power of the mouse was orally administered to eight groups except for the non-treated group.
In the morris water-maze apparatus, water (temperature: 22±2° C.) was filled by 32 cm within a tank filled with opaque water (diameter 120 cm, height 45 cm) and an escape platform (diameter 10 cm, height 30 cm) was installed in one section of the quadrant located 2 cm below the surface of the water. The powdered skim milk was added to be invisible. The experiment was conducted for five days. The possibility of going to the escape area by chance by changing the positions of acquisition three times a day at three different positions which were minimized. If animals go to the escape area and stay for more than 10 seconds, the time taken until an escape area was found was set to the escape latency. The mean value of the experiments 3 times a day was set to the mean escape latency. In the morris water-maze test, since the test animals remembered and find out the targeting position, the position of the marker was remained constant during the experiment period so that there was no change in the surrounding environment. In the case where the escape platform was not found within 120 seconds, the experiment animal was induced to the escape platform and stayed for 10 seconds, thereby having the position remembered.
On the last day of the experiment, the escape platform was removed. The probe test for measuring the time spent in platform quadrant was carried out.

With CCO [Ethanol, ethanol] the “Time of arrival in the learning test” value (male ICR mouse [1]) was 12 s, the “Time of arrival in the retention trial” value (male ICR mouse [1]) was 21 s and the Mean escape latency (male ICR mouse [2]) was 121 s. For the same molecule, the “Time spent in quadrant” value (male ICR mouse [2]) was 18 s.

Nc1c2c(nc3ccccc13)CCCC2 [Tacrine, tacrine] was tested, and the “Time of arrival in the learning test” value (male ICR mouse [1]) was 20 s, the “Time of arrival in the retention trial” value (male ICR mouse [1]) was 85 s and the Mean escape latency (male ICR mouse [2]) was 56 s. The “Time spent in quadrant” value (male ICR mouse [2]) was 28 s.
